Measurements taken from US20160052887A1, “PHARMACEUTICALLY ACCEPTABLE AMINE SALTS OF PITAVASTATIN” (DSM SINOCHEM PHARMACEUTICALS NETHERLANDS B.V., priority 2013, published 2016).
Where a name gives a salt, the structure may show the parent alone.

Legend:
[1] = Solubility of pitavastatin salts in buffers of pH 1.2 and pH 4.8; format: physicochemical; settings: for Appearance: appearance of the mixture at the reported pH and amount of salt added
From the text: The pharmaceutically acceptable pitavastatin salts obtained above were subjected to solubility measurements. […] Amounts of added salt were increased as long as the resulting solution remained clear and the resulting pH value, as well as the total amount of salt added, are reported in the below Table.
The following observations were made. The solubility of pitavastatin calcium salt is very low, initially the compound floated on the buffer. In contrast, the solubility of the amine salts was much higher; in many cases solutions were still clear after more than 160 mg·g^−1 solution was added. For the amine salts, pH values increased to values as reported in the Table upon increasing addition of salt (indicating exhaustion of buffer capacity due to high salt solubility). […] Qualitatively, the speed of dissolution of the amine salts was much faster than the speed of dissolution of the calcium salt. The pitavastatin amine salts were not hygroscopic (qualitative determination).

[2] = Basic toxicological evaluation

| SMILES | Appearance [1] | also measured |
| --- | --- | --- |
| O=C(O)C[C@H](O)C[C@H](O)/C=C/c1c(C2CC2)nc2ccccc2c1-c1ccc(F)cc1 [Tris(hydroxymethyl)-aminomethane salt, pitavastatin-tris(hydroxymethyl)aminomethane salt] | Clear | – |
| O=C(O)C[C@H](O)C[C@H](O)/C=C/c1c(C2CC2)nc2ccccc2c1-c1ccc(F)cc1 [Choline salt, pitavastatin-choline salt] | Clear | – |
| O=C(O)C[C@H](O)C[C@H](O)/C=C/c1c(C2CC2)nc2ccccc2c1-c1ccc(F)cc1 [L-Lysine salt, pitavastatin-lysine salt] | – | Solubility (observation in words) ([1]; starting with a buffer of pH 4.8 (entry at pH 4.5)): very low |
| NCc1ccco1 [1-furfurylamine] | – | Toxicological classification [2]: very safe |
| NCc1ccco1.O=C(O)C[C@H](O)C[C@H](O)/C=C/c1c(C2CC2)nc2ccccc2c1-c1ccc(F)cc1 [Furfurylamine salt, pitavastatin-furfuryl amine salt] | Suspension | – |
| O=C(O)C[C@H](O)C[C@H](O)/C=C/c1c(C2CC2)nc2ccccc2c1-c1ccc(F)cc1 [Calcium salt, pitavastatin-Ca, reference compound] | Suspension | Solubility (observation in words) ([1]; aqueous buffers): very low |
